# Laboratory results from patent US20230172984A1, “CLEARANCE OF SENESCENT CELLS BY ACTIVATION OF iNKT CELLS” (THE REGENTS OF THE UNIVERSITY OF CALIFORNIA, priority 2020, published 2023).
# How the values were obtained:
# Format in all cases: in vivo, mouse
# [1] = test system: senescent CD45^− lung cells; assay: Bleomycin-induced lung injury model, C12FDG assay on lung cells
# Protocol: MATERIALS AND METHODS. Mouse husbandry. All procedures involving mice were performed according to the IACUC standards following ethics approval by the animal committee at the University of California, San Francisco. Male C57BL6/J on chow or HFD fed mice. HFD mice were fed a high-fat diet (60% kcal from fat) from 6 weeks until 22 weeks of age. All experiments on HFD mice were performed at 22-24 weeks total age (16-18 weeks on HFD). Age-matched male C57BL6/J mice on standard rodent chow diet were used as controls. For the lung injury model, 10-week-old male C57BL/6J mice were used. The animals were divided into three groups: the control group, the injured group, and the α-GalCer treated group. The animals in the control group received vehicle only (i.p.) on day 10. […] RBCs in cell pellet were lysed by resuspending in 1 mL lysis buffer for 3 min and was neutralized using 10 mL of sterile DMEM medium, centrifuged and the cell pellet resuspended in 1 ml of sterile DMEM containing DNase I. Viability of the cells was analyzed using Vi-Cell XR cell viability analyzer. C12FDG flow cytometry assay. eWAT SVF cells isolated and counted as described above were adjusted to 3×10^6 cells/ml in complete culture media and incubated with 33 μM C12FDG for 1 hr in a 37° C. water bath. […] Samples were analyzed on an Attune acoustic focusing cytometer. […] Data were analyzed with FlowJo (v. 10). […]
# [2] = Bleomycin lung injury survival study; conditions: bleomycin 4 U/kg intratracheal, α-GalCer or vehicle at day 5, vs vehicle-injected mice; FIG. 4E
# Text: Bleomycin lung injury. For measurement of lung collagen, 3 U/kg Bleomycin was instilled intratracheally, with injection of α-GalCer or vehicle at day 10, followed by lung harvest for hydroxyproline assay at 20 days. For the survival study, 4 U/kg Bleomycin was instilled intratracheally, with injection of α-GalCer or vehicle at day 5.
# [3] = Bleomycin lung injury, hydroxyproline assay (whole lung collagen content); conditions: bleomycin 3 U/kg, α-GalCer or vehicle at day 10; FIG. 4D
# Protocol: MATERIALS AND METHODS. Mouse husbandry. All procedures involving mice were performed according to the IACUC standards following ethics approval by the animal committee at the University of California, San Francisco. Male C57BL6/J on chow or HFD fed mice. HFD mice were fed a high-fat diet (60% kcal from fat) from 6 weeks until 22 weeks of age. All experiments on HFD mice were performed at 22-24 weeks total age (16-18 weeks on HFD). Age-matched male C57BL6/J mice on standard rodent chow diet were used as controls. For the lung injury model, 10-week-old male C57BL/6J mice were used. The animals were divided into three groups: the control group, the injured group, and the α-GalCer treated group. The animals in the control group received vehicle only (i.p.) on day 10. The injured group animals received bleomycin (3 U/kg) via the intratracheal route at the start of the experiment (day 0). The animals in the α-GalCer treated groups received bleomycin (3 U/kg) on day 0, and i.p. injection of α-GalCer (2 μg/mouse) on day 10. The animals in all the groups were sacrificed on day 14, and lungs were harvested for isolation of primary pulmonary Alveolar Type II cells (ATII) on the same day. For the hydroxyproline assay, mice were euthanized 21 days after injury. Bleomycin lung injury. […] Absorbance was measured at 550 nm and the values were computed from the standard curve.
smiles,measurement,setting,value
"CCCCCCCCCCCCCCCCCCCCCCCCCC(=O)N[C@@H](CO[C@H]1O[C@H](CO)[C@H](O)[C@H](O)[C@H]1O)[C@H](O)[C@H](O)CCCCCCCCCCCCCC [GalCer, alpha-Galactosylceramide]",number of CD45^− C12FDG^+ lung cells,"[1]; bleomycin 3 U/kg day 0, α-GalCer 2 μg/mouse i.p. day 10, lungs harvested day 14, FIG. 4A",decreased the number of such CD45^− C12FDG^+ lung cells to levels on par with those in the lungs of uninjured control mice
same,epithelial and mesenchymal senescent cells in lung,[1]; bleomycin-injured mice treated with GalCer,both epithelial and mesenchymal senescent cells were affected
same,mortality (Kaplan Meier survival),[2],significantly reduced
same,lung hydroxyproline content (fibrosis),[3],significantly reduced lung hydroxyproline content
